Here are results for 14 compounds from ChEMBL document CHEMBL1201862, “PubChem BioAssay data set” (2004).

Some test systems named below: CAKI-1; Hs-578T; MCF7; MDA-N; MDA-MB-231; DU-145; MDA-MB-435; PC-3; T47D; NCI-H226; RPMI-8226; A498; EKVX; Malme-3M; NCI/ADR-RES; SR; SF-539.
Experiment in all cases: inhibition of tumour cell growth, NCI panel, 48 h

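Values below derive from 48-hour exposures of cells grown in 96-well plates, with endpoints linearly interpolated between the two concentrations bracketing the appropriate inhibition level. GI50: concentration for 50% inhibition of growth.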 The source made the active and inactive calls. Rule as the data show it: active = GI50 up to about 1.1 µM and inactive = higher.

On to `COc1cccc(/C=C/C(=O)N2CC(CCl)c3c2cc(N)c2ccccc32)c1` (stereo not given), for which the GI50 was 0.000566 µM (active) in the assay on CAKI-1; 0.00968 µM (active) with Hs-578T; 0.000238 µM (active) with MCF7; 0.0143 µM (active) with MDA-N; 0.0039 µM (active) with MDA-MB-231; 0.00018 µM (active) with DU-145. Moreover, the GI50 was 0.00319 µM (active) in the assay on MDA-MB-435; 0.00284 µM (active) with PC-3; 0.0034 µM (active) with T47D; 0.0137 µM (active) with NCI-H226; 0.0507 µM (active) in the assay on RPMI-8226; 0.00665 µM (active) in the assay on A498. For the same compound, the GI50 in the assay with EKVX is 0.0142 µM (active); with Malme-3M it was < 0.01 µM (active); with NCI/ADR-RES, 0.0731 µM (active).

Regarding `CCOC(=O)/C(=C/c1cn(C(C)=O)c2ccccc12)P(=O)(OC)OC`, the GI50 is 31.9 µM (inactive) in the assay on CAKI-1; 31 µM (inactive) with Hs-578T; 24.8 µM (inactive) in the assay with SR; < 0.01 µM (active) in the assay on MCF7; 43.8 µM (inactive) with MDA-MB-231; 22.2 µM (inactive) in the assay with DU-145. Besides, the GI50 is 36.4 µM (inactive) with MDA-MB-435; 25.9 µM (inactive) in the assay on PC-3; 13.7 µM (inactive) in the assay on T47D; 19.9 µM (inactive) in the assay on RPMI-8226; 15.3 µM (inactive) with A498; 29.2 µM (inactive) in the assay on NCI/ADR-RES.

As for `CCN1C(=O)c2cc(OC)c(OC)cc2C(=O)C12OC(=O)c1cc3c(cc12)OCO3` (stereo not given), the GI50 is > 100 µM (inactive) with CAKI-1; 36.8 µM (inactive) in the assay with Hs-578T; 51.4 µM (inactive) with SR; 78.9 µM (inactive) in the assay with MCF7; > 100 µM (inactive) in the assay with MDA-N; 41.4 µM (inactive) in the assay with MDA-MB-231. For the same compound, the GI50 is 31.3 µM (inactive) with DU-145; > 100 µM (inactive) with MDA-MB-435; > 100 µM (inactive) with PC-3; 53.2 µM (inactive) in the assay with SF-539; > 100 µM (inactive) in the assay on NCI-H226; 24.1 µM (inactive) with RPMI-8226. Besides, the GI50 with A498, in the assay with EKVX, in the assay on Malme-3M and in the assay with NCI/ADR-RES was > 100 µM (inactive) in each case.

Take `OCc1cn(C(c2ccccc2)(c2ccccc2)c2ccccc2)cn1`: the GI50 is 91.6 µM (inactive) in the assay with CAKI-1; 33.7 µM (inactive) with Hs-578T; > 100 µM (inactive) with SR; > 100 µM (inactive) in the assay with MDA-N; > 100 µM (inactive) in the assay with MDA-MB-231; > 100 µM (inactive) in the assay on DU-145. Further, the GI50 with MDA-MB-435 is > 100 µM (inactive); in the assay with PC-3 it was 27.5 µM (inactive); in the assay on T47D, > 100 µM (inactive); in the assay with NCI-H226 it was > 100 µM (inactive); in the assay with RPMI-8226, > 100 µM (inactive); with NCI/ADR-RES it was > 100 µM (inactive).

Turning to `CCOc1c(/N=N/c2ccccc2Cl)c(-c2ccccc2)nn1C(=S)S`, the GI50 with CAKI-1 was 18.7 µM (inactive); in the assay with Hs-578T, 22.2 µM (inactive); with SR, 26.5 µM (inactive); in the assay with MCF7 it was 37.8 µM (inactive); in the assay with MDA-MB-231, 15.7 µM (inactive); in the assay on DU-145, > 100 µM (inactive). For the same compound, the GI50 with MDA-MB-435 was 29 µM (inactive); with PC-3, 48.2 µM (inactive); with SF-539 it was 14.2 µM (inactive); in the assay with T47D, 22.2 µM (inactive); in the assay with NCI-H226, 20.8 µM (inactive); with EKVX, 30.9 µM (inactive). Besides, the values for the GI50 in the assay on Malme-3M and in the assay on NCI/ADR-RES were 37.2 µM (inactive) and 33.8 µM (inactive), respectively.

Consider `O=C(Nc1cccc2ccccc12)Nn1cnnc1`, for which the GI50 in the assay with CAKI-1, in the assay on Hs-578T, in the assay on SR, with MCF7, in the assay on MDA-N and in the assay on DU-145 was > 100 µM (inactive) in each case. For the same compound, the GI50 in the assay with MDA-MB-435, in the assay with PC-3, in the assay with SF-539, in the assay with T47D, in the assay on NCI-H226 and in the assay on RPMI-8226 was > 100 µM (inactive) in each case. The GI50 in the assay with A498, with EKVX and in the assay on Malme-3M was > 100 µM (inactive) each time.

Regarding `O=C(O)/C(=C\c1ccncc1)c1cccc2ccccc12`, the GI50 in the assay on Hs-578T, in the assay with SR, in the assay on MDA-N, in the assay with MDA-MB-231, in the assay with DU-145 and in the assay with MDA-MB-435 was > 100 µM (inactive) in each case. Moreover, the GI50 in the assay with PC-3, in the assay with SF-539, in the assay with T47D, in the assay with RPMI-8226, in the assay with EKVX and with Malme-3M was > 100 µM (inactive) each time. Further, the GI50 in the assay on NCI/ADR-RES is > 100 µM (inactive).

In the case of `Cc1cc2oc3c(ccc(=O)n3C)c(=O)c2c(C)c1Cl`, the GI50 with CAKI-1 was 67.5 µM (inactive); in the assay on Hs-578T it was 32 µM (inactive); with SR it was 38.1 µM (inactive); in the assay on MDA-N, 52.8 µM (inactive); in the assay on MDA-MB-231, 31.8 µM (inactive); in the assay with DU-145, 56.6 µM (inactive). In addition, the GI50 in the assay on MDA-MB-435 is 28.1 µM (inactive); in the assay with PC-3, 37.4 µM (inactive); in the assay on SF-539, 23.8 µM (inactive); in the assay with T47D, 50.1 µM (inactive); in the assay with NCI-H226, 35.6 µM (inactive); with A498, 46.8 µM (inactive). Also, the GI50 with EKVX is 52 µM (inactive); with Malme-3M, 57.7 µM (inactive); with NCI/ADR-RES it was 72.9 µM (inactive).

In the case of `CCc1c(-c2ccccc2)[nH]c2ccccc2c1=O`, the GI50 in the assay on CAKI-1 is 19.8 µM (inactive); with SR, 49.1 µM (inactive); in the assay with MCF7, 57.1 µM (inactive); in the assay with MDA-N, 47.5 µM (inactive); in the assay on MDA-MB-231 it was 70.6 µM (inactive); in the assay with DU-145, 76.9 µM (inactive). Also, the GI50 in the assay on MDA-MB-435 is 46.2 µM (inactive); with SF-539 it was 50.5 µM (inactive); with T47D it was 46.5 µM (inactive); with NCI-H226, 27.7 µM (inactive); in the assay on RPMI-8226, 23.4 µM (inactive); in the assay with A498 it was 33.4 µM (inactive). Besides, the GI50 with EKVX was 81.1 µM (inactive); in the assay on Malme-3M, 72.4 µM (inactive).

In the case of `O=C(Nc1cccc(C(=O)NCCCO)c1)/C(=C/c1ccccc1)NC(=O)c1ccccc1`, the GI50 in the assay with CAKI-1, in the assay on Hs-578T, with MCF7, in the assay on MDA-N, with MDA-MB-231 and in the assay with DU-145 was > 100 µM (inactive) throughout. Moreover, the GI50 in the assay with MDA-MB-435, with PC-3, in the assay with SF-539, in the assay on T47D, in the assay with NCI-H226 and in the assay with RPMI-8226 was > 100 µM (inactive) throughout. Further, the GI50 in the assay with A498, in the assay on EKVX, in the assay on Malme-3M and with NCI/ADR-RES was > 100 µM (inactive) in each case.

As for `CC(C)c1cccc(C(C)C)c1OS(=O)(=O)NC(=O)OC(C(F)(F)F)C(F)(F)F`, the GI50 with CAKI-1 was > 100 µM (inactive); in the assay with Hs-578T, > 100 µM (inactive); in the assay on SR it was 36 µM (inactive); in the assay on MCF7 it was 32 µM (inactive); in the assay on MDA-N, 56.9 µM (inactive); in the assay with MDA-MB-231 it was 36.9 µM (inactive). Moreover, the GI50 with DU-145 is 33.5 µM (inactive); in the assay on MDA-MB-435 it was 57.1 µM (inactive); in the assay with PC-3, 36.7 µM (inactive); with SF-539, 30.6 µM (inactive); with NCI-H226 it was 35.8 µM (inactive); with RPMI-8226 it was 16.4 µM (inactive). The GI50 is 71.9 µM (inactive) with A498, 37.8 µM (inactive) with EKVX, > 100 µM (inactive) in the assay on Malme-3M and 32.7 µM (inactive) in the assay with NCI/ADR-RES.

Consider `CN(NC(=O)c1cccs1)C1=NCCCN1`, for which the GI50 in the assay on Hs-578T, in the assay on SR, with MCF7, in the assay with MDA-N, in the assay on MDA-MB-231 and with MDA-MB-435 was > 100 µM (inactive) throughout. The GI50 with PC-3, in the assay on SF-539, in the assay on T47D, in the assay with NCI-H226, in the assay on RPMI-8226 and with A498 was > 100 µM (inactive) each time. In addition, the GI50 with EKVX was 85.9 µM (inactive); with Malme-3M, > 100 µM (inactive); in the assay with NCI/ADR-RES it was > 100 µM (inactive).

`Brc1cccc(Nc2ncnc3sc4c(c23)CCC(Nc2cccc(Br)c2)C4)c1` (stereo not given): the GI50 was 79.8 µM (inactive) in the assay on CAKI-1; > 100 µM (inactive) in the assay on Hs-578T; 83.8 µM (inactive) with MCF7; > 100 µM (inactive) with MDA-N; > 100 µM (inactive) with MDA-MB-231; > 100 µM (inactive) in the assay with DU-145. Also, the GI50 in the assay with MDA-MB-435 is > 100 µM (inactive); in the assay on PC-3, > 100 µM (inactive); in the assay on T47D, 6.55 µM (inactive); with EKVX it was > 100 µM (inactive); in the assay on Malme-3M it was > 100 µM (inactive); in the assay on NCI/ADR-RES, > 100 µM (inactive).

Take `Nc1ncc2c(n1)-c1ccccc1OC2N1CCCC1` (stereo not given): the GI50 in the assay on CAKI-1, with Hs-578T, with SR, with MCF7, in the assay on MDA-N and in the assay with MDA-MB-231 was > 100 µM (inactive) each time. Also, the GI50 in the assay with DU-145, in the assay on MDA-MB-435, with PC-3, with SF-539, in the assay with NCI-H226 and in the assay with RPMI-8226 was > 100 µM (inactive) throughout. For the same compound, the figures for the GI50 in the assay on EKVX, in the assay on Malme-3M and with NCI/ADR-RES were 41.5 µM (inactive), > 100 µM (inactive) and > 100 µM (inactive), respectively.
